This passage reports activity, IC50 and inhibition results from patent US20110280940A1, “Di-Vanilloyl And Tri-Vanilloyl Derivatives For Use In Anti-Cancer Therapy” (priority 2008, published 2011).

Where two headings read alike, the source gives them in different places.

As usually defined, the inhibition is the percentage by which the read-out fell short of the control.

The test system of assay [1] is U373-MG glioma cell line. Nature of the assay: Cellular imaging (quantitative videomicroscopy), global growth ratio, U373. Format: cell-based. The note with it: Homo sapiens, 72 h, read-out: Global Grow Ratio Treated/Ct (GGR T/Ct) determined by Video Quantitative microscopy, U373. The source says: As the MTT test is based on the mitochondria functions, we also investigated the effects of the di- and tri-vanilloyl derivatives according to the invention on cell proliferation, migration and morphology by means of a cellular imaging approach (Debeir et al., Cytometry 60:29-40, 2004; Debeir et al., IEEE Trans Med Imaging 24:697-711, 2005) either in the human U373-MG glioma cell line, which is apoptosis-resistant but autophagy-sensitive (Lefranc F et al., Neurosurgery 2008) and in the human A549 non-small-cell-lung cancer cell line, which is apoptosis-resistant and autophagy-resistant (Mijatovic T et al., Neoplasia 2006, May; 8(5):402-12).
Investigations have also been performed in human normal fibroblasts (WS1 and WI38—see Tables 4 and 5). Cellular imaging relied on the use of computer-assisted phase-contrast microscopy making possible to film the behaviour of living cells in culture dishes for several days.
Cells were seeded in a 25-cm^2 flask at a low density, treated or not with the vanilloyl-esters invention (at a concentration of 50 μM) and filmed thereafter for a period of 72 h. The experiment was conducted in quadruplicates (in duplicates for DLT-95 compounds).
The behaviour of the cells, in terms of morphology, growth and death were thus investigated. The effect on the overall growth was measured by counting the number of cells on the first (0 h) and the last image (72 h) of each film. The global growth ratio (GGR) was then deduced by dividing the number of cells on the last image by the number of cells on the first image. The ratio GGRtreated cells/GGRcontrol cells, was further calculated thereby obtaining a value that describes the effect of compounds of the present invention on the overall cell growth. The methodology is fully described and validated in Debeir et al., 2008, Exp Cell Res 314:2985-2998 and Mathieu et al., 2009, J Cell Mol Med, Feb. 20, 2009.
Illustrative pictures (time=0 h and 72 h) of glioblastoma and normal fibroblast cell line left untreated or treated with poly-vanillic compounds according to the invention (50 μM) are provided in FIG. 1 (U373 glioblastoma) and FIG. 2 (normal fibroblasts). The GGR parameter analyses confirmed the marked impairment of cell growth in both cancer cell lines of the poly-vanillic compounds according to the invention (Table 5).

Assay [2] addresses T1, Aurora B kinase (Homo sapiens, UniProt Q96GD4).
T1 construct: made in house
Nature of the assay: Radiometric protein kinase assay (33 PanQinase), Aurora B. Particulars: for IC50: dose-response 0-100 μM, n=3, read-out: IC50: Concentration of drug needed in order to inhibit kinase activity by 50%, AurB; for inhibition at 57 µM: read-out: inhibition of Aurora B activity. It is filed as biochemical. The protocol: Note that at a concentration of 20 μM of the DLT compounds, the activity of the three Aurora kinases is reduced by approximately 40-50%, whereas at concentrations of 50 μM, i.e. the concentration used in the anti-proliferation assays of example 2B, the activity of said kinases is reduced by 60-75%.
The kinase inhibition profile of DLT95-Cl at 20 μM was determined using 255 protein kinases. Residual activity values were measured by testing each compound at one concentration in duplicate in each kinase assay. A radiometric protein kinase assay (33 PanQinase®Activity Assay) was used for measuring the kinase activity of 250 protein kinases. All kinase assays were performed in 96-well flashPlates™ from Perkin Elmer (Boston, Mass., USA) in a 50 μl reaction volume. The reaction cocktail was pipetted in 4 steps in the following order: • 10 μl of non-radioactive ATP solution (in H2O) • 25 μl of assay buffer/[γ-33P]-ATP mixture • 5 μl of test sample in 10% DMSO • 10 μl of enzyme/substrate mixture
The assay for all enzymes contained 60 mM HEPES-NaOH, pH 7.5, 3 mM MgCl2, 3 mM MnCl2, 3 μM Na-orthovanadate, 1.2 mM DTT, 50 μg/ml PEG20000, 1 μM ATP/[γ-33P]-ATP (approx. […] per well), protein kinase, and substrate. All PKC assays (except the PKC-mu and the PKC-nu assay) additionally contained 1 mM CaCl2, 4 mM EDTA, 5 μg/ml Phosphatidylserine and 1 μg/ml 1,2-Dioleyl-glycerol. The MYLK2, CAMK1D, CAMK2A, CAMK2B, CAMK2D, CAMK4, CAMKK2, DAPK2 and EEF2K assays additionally contained 1 μg/ml Calmodulin and 0.5 mM CaCl2. The PRKG1 and PRKG2 assays additionally contained 1 μM cGMP.
The protein kinases were expressed either in Sf9 insect cells or in E. coli as recombinant GST-fusion proteins or as His-tagged proteins. All kinases were produced from human cDNAs. Kinases were purified by affinity chromatography using either GSH-agarose (Sigma) or Ni-NTH-agarose (Qiagen). The purity of the protein kinases was examined by SDS-PAGE/coomassie staining. The identity of the protein kinases was checked by mass spectroscopy.
The reaction cocktails were incubated at 30° C. for 60 minutes. The reaction was stopped with 50 μl of 2% (v/v) H3PO4, plates were aspirated and washed two times with 200 μl 0.9% (w/v) NaCl. All assays were performed with a BeckmanCoulter Biomek 2000/SL robotic system.
Incorporation of ^33Pi (counting of “cpm”) was determined with a microplate scintillation counter (Microbeta, Wallac).
For each kinase, the median value of the cpm of three wells with complete reaction cocktails, but without kinase, was defined as “low control” […]. This value reflects unspecific binding of radioactivity to the plate in the absence of protein kinase but in the presence of the substrate. Additionally, for each kinase the median value of the cpm of three other wells with the complete reaction cocktail, but without any compound, was taken as the “high control”, i.e. full activity in the absence of any inhibitor […]. The difference between high and low control of was taken as 100% activity for each kinase. As part of the data evaluation the low control value of each kinase was subtracted from the high control value as well as from their corresponding “compound values”. The residual activity (in %) for each compound well was calculated by using the following formula: Res. Activity (%)=100×[(cpm of compound−low control)/(high control−low control)]

T1 sequence (Q96GD4 whole entry): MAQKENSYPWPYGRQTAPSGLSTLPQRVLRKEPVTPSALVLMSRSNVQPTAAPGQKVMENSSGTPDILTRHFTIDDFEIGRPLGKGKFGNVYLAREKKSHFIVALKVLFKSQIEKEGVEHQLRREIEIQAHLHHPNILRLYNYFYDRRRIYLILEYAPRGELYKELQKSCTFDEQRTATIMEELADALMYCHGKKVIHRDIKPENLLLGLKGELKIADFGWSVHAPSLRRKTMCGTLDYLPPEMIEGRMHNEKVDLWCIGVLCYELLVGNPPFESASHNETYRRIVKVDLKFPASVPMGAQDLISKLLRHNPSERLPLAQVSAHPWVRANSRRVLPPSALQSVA

As for `COc1cc(C(=O)OCCCCCCOC(=O)c2ccc(O)c(OC)c2)ccc1O` [DLT11, Hexane-1,6-diyl bis-(4-hydroxy-3-methoxybenzoate)], the activity at 50 µM in assay [1] (50 μM) turned out to be 20%.

`O=C(OCc1cc(COC(=O)c2ccc(O)c(Cl)c2)cc(COC(=O)c2ccc(O)c(Cl)c2)c1)c1ccc(O)c(Cl)c1` [DLT95-Cl, [3,5-bis[(4-hydroxy-3-chloro-benzoyl)oxymethyl]phenyl]methyl 4-hydroxy-3-chloro-benzoate]: in assay [2], the IC50 was found to be 0.9 µM and the inhibition at 57 µM was at least 50%. For `COc1cc(C(=O)OCc2cc(COC(=O)c3ccc(O)c(OC)c3)cc(COC(=O)c3ccc(O)c(OC)c3)c2)ccc1O` [DLT95, [3,5-bis[(4-hydroxy-3-methoxy-benzoyl)oxymethyl]phenyl]methyl 4-hydroxy-3-methoxy-benzoate], the activity at 50 µM in assay [1] was found to be 10%. In assay [2], the IC50 is 3.4 µM. With `COc1cc(C(=O)OCCOC(=O)c2ccc(O)c(OC)c2)ccc1O` [DLT1, Ethane-1,2-diyl bis-(4-hydroxy-3-methoxybenzoate)], the activity at 50 µM in assay [1] (50 μM) stood at 30%. `O=C(OCc1cc(COC(=O)c2ccc(O)c(F)c2)cc(COC(=O)c2ccc(O)c(F)c2)c1)c1ccc(O)c(F)c1` [DLT95-F, [3,5-bis[(4-hydroxy-3-fluoro-benzoyl)oxymethyl]phenyl]methyl 4-hydroxy-3-fluoro-benzoate]: in assay [2], the IC50 stood at 2.4 µM and the inhibition at 57 µM is at least 50%. With `COc1cc(C(=O)O)ccc1O` [vanillic acid, reference compound], in assay [2], the IC50 was over 100 µM.
